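Exposure lasted 48 hours, with cells grown in 96-well plates and compounds tested at five concentrations. GI50 is the concentration that inhibits growth by half. TGI marks complete inhibition of growth.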

Results on 28 compounds are retold here after PubChem BioAssay (NCI).

What all share (experiment): inhibition of tumour cell growth, NCI panel, 48 h
Assay [1] deals with MCF7 breast.
Assay [2] concerns HOP-62 NSCLC.
The test system of assay [3] is K-562 leukemia.
The test system of assay [4] is HS 578T breast.
Assay [5] concerns UACC-62 melanoma.
Assay [6] concerns SR leukemia.
The test system of assay [7] is CAKI-1 renal.
The test system of assay [8] is RXF 393 renal.
The test system of assay [9] is U251 CNS.
Assay [10] deals with SK-OV-3 ovarian.

Take `O=C(CNCc1ccccc1)Oc1c(Cl)c(Cl)c(Cl)c(Cl)c1Cl`: the TGI in [1] is more than 100 µM; in assay [2], more than 100 µM; in assay [3] it was more than 100 µM; in assay [4], 50.6 µM; in [5] it was 51.5 µM; in [6] it was 47.9 µM. Also, the TGI in assay [7] was 56.1 µM; in assay [8], more than 100 µM; in [9], 70.5 µM; in [10], more than 100 µM.

On to `O=C1CC(Sc2nc3ccc(I)cc3c(=O)n2Cc2ccccc2)C(=O)NN1` (stereo not given), for which the TGI was 28.2 µM in assay [1]; 35.1 µM in assay [2]; 50.5 µM in assay [3]; 42.4 µM in assay [4]; 29.3 µM in assay [5]; 24 µM in assay [6]. The values for the TGI in assay [7], in assay [9] and in [10] were 11.2 µM, 29.4 µM and 29.7 µM, respectively.

As to `COC(=O)[C@H](Cc1ccccc1)NC(=O)c1ccc(CNC(=O)/C=C/c2cccc(Oc3ccccc3)c2)cc1`, the TGI in assay [1] was more than 100 µM; in assay [2] it was more than 100 µM; in assay [3], more than 100 µM; in assay [4], 46.3 µM; in assay [5], 24 µM; in assay [6], more than 100 µM. Also, the TGI in assay [7] was 58.1 µM; in assay [8] it was 24.2 µM; in assay [9], more than 100 µM; in assay [10] it was more than 100 µM.

As to `Cc1cn2c(C)csc2c1P(=O)(OC(C)C)OC(C)C`, the TGI in assay [1], in assay [2], in assay [3], in [4], in [5] and in [6] was more than 100 µM in each case. For the same compound, the TGI in assay [7], in [8], in assay [9] and in [10] was more than 100 µM each time.

Turning to `COc1ccc(N=C2C(=S)N(c3ccc(OC)cc3)/C(=N/S(=O)(=O)c3ccccc3)N2c2ccccc2)cc1`, the TGI was 35.8 µM in [1]; more than 57 µM in assay [2]; more than 100 µM in assay [3]; more than 66.1 µM in assay [4]; 16.2 µM in assay [5]; more than 66.4 µM in assay [6]. The TGI in assay [7] was 28.2 µM; in assay [8], 16 µM; in [9] it was 28.8 µM; in assay [10], more than 55.4 µM.

As for `Cc1cc2c(nn1)-c1ccccc1C2=O`, the TGI in [1], in assay [2], in [3], in assay [4], in assay [5] and in assay [6] was more than 10 µM in each case. For the same compound, the TGI in assay [7], in [8], in assay [9] and in [10] was more than 10 µM each time.

In the case of `COc1cc(CC(C)N)ccc1O` (stereo not given), the TGI in assay [1], in [2], in assay [3], in [4], in assay [5] and in [6] was more than 100 µM each time. Also, the TGI in assay [7], in assay [8], in assay [9] and in [10] was more than 100 µM each time.

On to `CCCCC/C(C=O)=C\c1ccccc1`, for which the TGI in [1] was more than 100 µM; in assay [2] it was more than 100 µM; in assay [3], 69.8 µM; in assay [4], more than 100 µM; in [5], more than 100 µM; in assay [6], more than 100 µM. The TGI in assay [7], in assay [8], in [9] and in [10] was more than 100 µM throughout.

On to `COC(=O)C1(Cc2ccc3c(c2)CCC3)Cc2cc3c(cc2C1)CCC3`, for which the TGI is 58.5 µM in assay [1]; more than 100 µM in assay [2]; more than 100 µM in assay [3]; more than 100 µM in [4]; more than 100 µM in [5]; more than 100 µM in assay [6]. Besides, the values for the TGI in assay [8], in assay [9] and in [10] were 68.8 µM, more than 100 µM and more than 100 µM, respectively.

For `O=c1n(Cc2ccccc2)c(=O)n2c(=O)n(Cc3ccccc3)c(=O)n12`, the TGI in assay [1], in assay [3], in assay [4], in assay [5], in assay [6] and in assay [7] was more than 100 µM throughout. In addition, the TGI in assay [9] and in assay [10] was more than 100 µM each time.

With `Cc1c(C#N)c(N)n(C2OCC(O)C(O)C2O)c(=S)c1C#N` (stereo not given), the TGI in assay [1], in [2], in assay [3], in [4], in assay [5] and in [6] was more than 100 µM throughout. Moreover, the TGI in assay [7], in assay [8] and in assay [10] was more than 100 µM throughout.

Regarding `O=C(CCCN1CCC2(CC1)C(=NC1CCCCC1)NC(=O)N2c1ccccc1)c1ccc(F)cc1`, the TGI was 33.1 µM in assay [1]; 37.5 µM in [2]; more than 100 µM in assay [3]; 88.4 µM in [4]; 46.5 µM in [5]; 46.1 µM in assay [6]. Further, the results for the TGI in [7], in assay [8] and in assay [9] were more than 100 µM, 89 µM and 81.1 µM, respectively.

For `Nc1nc(Nc2ccc(Cl)cc2)sc1C(=O)c1cccs1`, the TGI in assay [1] was more than 100 µM; in assay [2], 53.6 µM; in assay [4] it was 42.2 µM; in assay [5] it was more than 100 µM; in [6], 14.9 µM; in assay [8], 42 µM. For the same compound, the TGI was determined as 38.4 µM in assay [9] and 50 µM in [10].

Turning to `N#CC(=N)c1ncn(-c2ccccc2N)c1N`, the TGI in assay [1], in assay [2], in assay [3], in assay [4], in assay [5] and in assay [6] was more than 100 µM in each case. The TGI in assay [7], in [9] and in assay [10] was more than 100 µM throughout.

Consider `CCOC(=O)C1(C(=O)OCC)CCCN1C(=O)[C@H](CNC(=O)OC(C)(C)C)NC(=O)OCc1ccccc1`, for which the TGI in assay [1], in assay [2], in assay [3], in assay [4], in assay [6] and in assay [7] was more than 100 µM in each case. In addition, the TGI in assay [8], in assay [9] and in assay [10] was more than 100 µM throughout.

`O=C1CCCc2cc3c(cc21)CC1(C3)Cc2ccc3c(c2C1)C(=O)CCC3` (stereo not given): the TGI was 42.8 µM in assay [1]; more than 100 µM in [2]; more than 100 µM in assay [3]; more than 100 µM in assay [4]; 40.3 µM in assay [6]; more than 100 µM in assay [7]. Also, the TGI in assay [8], in assay [9] and in [10] was more than 100 µM throughout.

On to `O=C(Nc1ccc(-n2cc(-c3ccncc3)c(-c3ccc(O)c(Cl)c3)n2)cc1)Nc1cccc(Cl)c1Cl`, for which the GI50 is 4.2 µM in assay [1]; 10.6 µM in assay [2]; 5.4 µM in assay [3]; 2840 nM in assay [4]; 9.79 µM in assay [5]; 30.6 µM in assay [6]. Also, the GI50 was more than 32.5 µM in assay [7], 973 nM in [8] and 2540 nM in assay [9]. The TGI is more than 32.5 µM in assay [1]; more than 32.5 µM in assay [2]; more than 32.5 µM in [3]; 26.5 µM in assay [4]; more than 32.5 µM in assay [5]; more than 32.5 µM in assay [6]. Also, the TGI in assay [7] was more than 32.5 µM; in assay [8], 5.25 µM; in [9], 25 µM.

As to `CC(C)(C)C(=O)C(Cc1ccccc1)C(=O)C(C)(C)C`, the TGI in assay [1], in [2], in assay [3], in [4], in assay [6] and in assay [7] was more than 100 µM each time. Further, the TGI in [8], in assay [9] and in [10] was more than 100 µM in each case.

With `COC(=O)C1(Cc2ccc3c(c2)CCC3)Cc2ccccc2C1=O` (stereo not given), the TGI is 70.1 µM in [1]; 59.3 µM in assay [2]; 48.4 µM in [3]; 87.6 µM in [4]; more than 100 µM in assay [5]; more than 100 µM in [6]. In addition, the TGI is more than 100 µM in [7], 37.2 µM in assay [9] and 85.8 µM in [10].

For the compound `CC1=CC(=O)CC2(C)CCC(C(C)CC(=O)CC(C)C)CC12` (stereo not given), the TGI in assay [1] is 66.8 µM; in [3] it was more than 100 µM; in assay [4], more than 100 µM; in assay [5], 59.1 µM; in assay [6] it was 41.6 µM; in assay [7], 30.2 µM. For the same compound, the TGI in [8] and in assay [9] was more than 100 µM throughout.

As to `CC(C)(C)OC(=O)C1C(=O)NC(=O)CC1C(COCc1ccccc1)OCc1ccccc1` (stereo not given), the TGI was 57.7 µM in assay [1]; 26.6 µM in assay [2]; more than 100 µM in assay [3]; 49.5 µM in assay [4]; 64.1 µM in assay [6]; more than 100 µM in [7]. The TGI in assay [9] worked out at 40.2 µM.

Take `CC12CC1C(c1cccc([N+](=O)[O-])c1)(c1cccc([N+](=O)[O-])c1)N=N2` (stereo not given): the TGI was more than 100 µM in [1]; more than 100 µM in assay [2]; more than 100 µM in assay [3]; 78 µM in assay [4]; 44.1 µM in assay [5]; 55.8 µM in assay [6]. For the same compound, the TGI in assay [9] is 51 µM; in assay [10], more than 100 µM.

`COc1ccccc1N1CCN(CCCNC(=O)c2cc(Cl)c(N)c(Cl)c2)CC1`: the TGI is more than 100 µM in [1]; more than 100 µM in [2]; more than 100 µM in assay [4]; more than 100 µM in assay [5]; 67.5 µM in [6]; 91 µM in assay [8]. Further, the TGI in assay [9] and in [10] was more than 100 µM each time.

In the case of `COc1ccc(/C=N/N2C(=O)c3c(N)c(C#N)c(-c4ccccc4)c(-c4ccccc4)c3C2=O)cc1`, the TGI in assay [1], in [3], in [4], in assay [5], in assay [6] and in assay [7] was more than 100 µM in each case. For the same compound, the TGI in assay [8] and in assay [9] was more than 100 µM in each case.

For the compound `COc1cc(CNc2nc3cc(C(F)(F)F)ccc3nc2-c2ccccc2)cc(OC)c1OC`, the TGI in assay [1] is 22.4 µM; in assay [2], more than 100 µM; in assay [3], more than 100 µM; in assay [4] it was more than 100 µM; in assay [5], 33.3 µM; in assay [6], more than 100 µM. Further, the results for the TGI in assay [7], in assay [8] and in [9] were more than 100 µM, 51.7 µM and more than 100 µM, respectively.

On to `O=C(O)c1ccc2c(c1)CC1(C2)Cc2cc3c(cc2C1=O)CCC3` (stereo not given), for which the TGI in assay [1], in [2], in [3], in assay [4], in assay [5] and in assay [6] was more than 100 µM throughout. The TGI in [8], in [9] and in assay [10] was more than 100 µM each time.

Turning to `CCOC(=O)[C@@H]1ON2O[C@@H](OC3CCCC3(c3ccccc3)c3ccccc3)C[C@H]3OC(=O)[C@@H]1C32` (stereo not given in full), the TGI was 52.1 µM in assay [1]; more than 100 µM in assay [2]; more than 100 µM in assay [4]; 42.2 µM in [5]; 61.4 µM in assay [6]; 31.6 µM in [7]. Besides, the TGI in [8] was 48.2 µM; in [9], more than 100 µM; in [10], more than 100 µM.

Take `COC(=O)C1=C(O)C(C(=O)OC)[C@@]2(O)[C@@H](C(=O)OC)[C@H](C)[C@@H](C)[C@@H]1[C@@H]2C(=O)OC` (stereo not given in full): the TGI in assay [1], in assay [2], in assay [3], in [4], in assay [5] and in assay [6] was more than 100 µM throughout. Further, the figures for the TGI in [8], in assay [9] and in assay [10] were 72.3 µM, more than 100 µM and more than 100 µM, respectively.
